Experimental data reported in PubChem BioAssay AID1963984 (Molecular Pharmacology Branch, DTP, NCI, 2024).

Test system: 233499-124-R-J3-PDC spheroids with HUVEC/MSC, viability
Test: Anticancer human tumor 233499-124-R-J3-PDC patient-derived colon adenocarcinoma cell line growth inhibition [PI3K]
Conditions: for IC50: curve of first compound; for viability, T/C: stronger effect = lower value
Description: Combinatorial screen of targeted agents with the PI3K inhibitors inavolisib, alpelisib, duvelisib, and copanlisib in multi-cell type tumor spheroids
A high-throughput screen of multi-cell type tumor spheroids was designed to identify active combinations of targeted small molecules and PI3K pathway inhibitors. Complex spheroids include a stromal component modeled by human endothelial cells (HUVEC) and fibroblasts modeled by human mesenchymal stem cells (MSCs). The concentration ranges selected for each drug and investigational agent were based upon clinically achievable concentrations if the clinical Cmax of the agent was known.
Compounds. The drugs and investigational agents: inavolisib (NSC800729), alpelisib (NSC765974), duvelisib (NSC772469), copanlisib (NSC816437), ipatasertib (NSC767898), afuresertib (NSC778305), talazoparib (NSC767125), sapanisertib (NSC764658), selumetinib (NSC741078), tovorafenib (DAY101, NSC766906), vemurafenib (NSC761431), ravoxertinib (NSC781343), sotorasib (NSC818433), MRTX1133 (NSC 836407), abemaciclib (NSC 768073), palbociclib (NSC758247), venetoclax (NSC 766270), SY5609 (NSC837396), enzalutamide (NSC755605), and darolutamide (NSC825331), were obtained from the National Cancer Institute (NCI) Developmental Therapeutics Program Chemical Repository. The FDA-approved anticancer drug set is available from the NCI Developmental Therapeutics Program. […] The stock solutions were prepared in dimethyl sulfoxide (DMSO, Sigma-Aldrich, St. Louis, MO, cat. D2650) at 800-fold the tested concentration and stored at -70 degrees C prior to their use. All drugs and investigational agents were tested over a range starting from a high concentration at or near the clinical Cmax and decreasing in half-log increments. If the clinical Cmax for an agent had not been determined, the highest concentration tested was 10 microM.
Cell Culture. All cells were maintained in an incubator at 37 degrees C and 5% CO2 with 95% humidity. The PDC lines were cultured according to standard operating procedures established by the NCI PDMR (https://pdmr.cancer.gov/sops/default.htm). All PDCs were thawed and cultured in Matrigel-coated flasks prepared with a working solution of 1X Ham's F-12 nutrient mix, without supplementation (Invitrogen, Waltham, MA, cat. 11765054), 100 U/mL penicillin-streptomycin (Invitrogen, cat. 15140122), and 2.5% Matrigel (Corning Inc., Corning, NY, cat. 354248) for the first three passages. The 354836-022-R-J1-PDC, 475296-252-R-J1-PDC, and 997726-040-R-J2-PDC lines were cultured in 6A media, which includes advanced DMEM/F-12 (Thermo Fisher Scientific, cat. 12634028), 10 mM HEPES (Thermo Fisher Scientific, cat. 15630080), 1X GlutaMAX supplement (Thermo Fisher Scientific, cat. 35050061), 0.1 mg/mL primocin (InvivoGen, San Diego, CA, cat. ant-pm-2), 10% defined fetal bovine serum, heat inactivated (HyClone Laboratories Inc., Logan, UT, cat. SH30070.03HI), 50% L-WRN conditioned media (ATCC, cat. CRL-3276), 1.25 mM N-Acetyl-L-cysteine (Sigma-Aldrich, cat. A9165), 10 mM nicotinamide (Sigma-Aldrich, cat. N0636), 1X B-27 supplement (Thermo Fisher Scientific, cat. 17504044), 1X N-2 supplement (Thermo Fisher Scientific, cat. 17502048), and 10 microM Y-27632 dihydrochloride (Tocris Bioscience, Bristol, United Kingdom, cat. 1254). The 624824-186-R-J2-PDC line was cultured in 6C/Colon 1B media, which includes all 6A media components plus 50 ng/mL human EGF recombinant protein (Thermo Fisher Scientific, cat. PHG0311). […]
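Also: spheroids exposed to agents for seven days before readout.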
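For viability, T/C in this document: percent viability relative to DMSO vehicle control taken as 100%.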

`Cn1cnc2c(F)c(Nc3ccc(Br)cc3Cl)c(C(=O)NOCCO)cc21` + CC(Nc1ccc2c(c1)OCCn1cc(N3C(=O)OCC3C(F)F)nc1-2)C(N)=O showed an IC50 (second compound 0.00316 µM) of 479 nM, an IC50 (second compound 0.01 µM) of 541 nM and an IC50 (second compound 0.0316 µM) of 262 nM. It also gave an IC50 (second compound 0.1 µM) of 200 nM, an IC50 (second compound 0.316 µM) of 134 nM and an IC50 (second compound 1 µM) of 17.1 nM. For the same compound, the viability, T/C (second compound 0.00316 µM, first compound 0.00949 µM) was 85%, the viability, T/C (second compound 0.00316 µM, first compound 0.03 µM) was 80% and the viability, T/C (second compound 0.00316 µM, first compound 0.0949 µM) was 75.1%. The viability, T/C (second compound 0.00316 µM, first compound 0.3 µM) was 57%, the viability, T/C (second compound 0.00316 µM, first compound 0.949 µM) was 38.4% and the viability, T/C (second compound 0.00316 µM, first compound 3 µM) was 18.7%. The viability, T/C (second compound 0.01 µM, first compound 0.00949 µM) was 79.7%, the viability, T/C (second compound 0.01 µM, first compound 0.03 µM) was 85.1% and the viability, T/C (second compound 0.01 µM, first compound 0.0949 µM) was 80.3%. It also gave a viability, T/C (second compound 0.01 µM, first compound 0.3 µM) of 64.1%, a viability, T/C (second compound 0.01 µM, first compound 0.949 µM) of 36.4% and a viability, T/C (second compound 0.01 µM, first compound 3 µM) of 21.9%. It also gave a viability, T/C (second compound 0.0316 µM, first compound 0.00949 µM) of 80.4%, a viability, T/C (second compound 0.0316 µM, first compound 0.03 µM) of 90.6% and a viability, T/C (second compound 0.0316 µM, first compound 0.0949 µM) of 78.7%. It also gave a viability, T/C (second compound 0.0316 µM, first compound 0.3 µM) of 45.7%, a viability, T/C (second compound 0.0316 µM, first compound 0.949 µM) of 30.2% and a viability, T/C (second compound 0.0316 µM, first compound 3 µM) of 23.8%. The viability, T/C (second compound 0.1 µM, first compound 0.00949 µM) was 77.6%, the viability, T/C (second compound 0.1 µM, first compound 0.03 µM) was 60.8% and the viability, T/C (second compound 0.1 µM, first compound 0.0949 µM) was 62.1%. For the same compound, the viability, T/C (second compound 0.1 µM, first compound 0.3 µM) was 47.4%, the viability, T/C (second compound 0.1 µM, first compound 0.949 µM) was 22.9% and the viability, T/C (second compound 0.1 µM, first compound 3 µM) was 16.8%. It also gave a viability, T/C (second compound 0.316 µM, first compound 0.00949 µM) of 70.2%, a viability, T/C (second compound 0.316 µM, first compound 0.03 µM) of 82.6% and a viability, T/C (second compound 0.316 µM, first compound 0.0949 µM) of 53.6%. The viability, T/C (second compound 0.316 µM, first compound 0.3 µM) was 37.1%, the viability, T/C (second compound 0.316 µM, first compound 0.949 µM) was 29.2% and the viability, T/C (second compound 0.316 µM, first compound 3 µM) was 24.2%. It also gave a viability, T/C (second compound 1 µM, first compound 0.00949 µM) of 57%, a viability, T/C (second compound 1 µM, first compound 0.03 µM) of 42% and a viability, T/C (second compound 1 µM, first compound 0.0949 µM) of 38.2%. It also gave a viability, T/C (second compound 1 µM, first compound 0.3 µM) of 19.8%, a viability, T/C (second compound 1 µM, first compound 0.949 µM) of 28.7% and a viability, T/C (second compound 1 µM, first compound 3 µM) of 12.7%.
